# Data as given in publication PMC7617869, “Molecular glues that inhibit deubiquitylase activity and inflammatory signaling” (Nature Structural & Molecular Biology, 2025).
# Where “and” joins values, the source holds several entries; their conditions need not be identical. Equal entries are not always repeated.
# Assays:
# Assay in all cases: DUB selectivity profiling (DUBprofiler, ubiquitin–rhodamine(110)–glycine)
# Type in all cases: biochemical
# [1] = biological target: T1, panel of 48 purified DUBs (Homo sapiens, UniProt Q96RU2); conditions: DUB USP28; screening concentration 5 μM; 5 µM
# T1 construct: purchased Ubiquigent (DUBprofiler service)
# Experimental: (§1) Biochemical selectivity profiling (DUBprofiler) was performed by Ubiquigent with a panel of 48 purified DUBs and ubiquitin–rhodamine(110)–glycine as a fluorescent substrate.
# [2] = biological target: T2, panel of 48 purified DUBs (Homo sapiens, UniProt Q8NB14); conditions: DUB USP38; screening concentration 5 μM; 5 µM
# T2 construct: purchased Ubiquigent (DUBprofiler service)
# Experimental: as §1
# [3] = biological target: T3, panel of 48 purified DUBs (Homo sapiens, UniProt Q9P275); conditions: DUB USP36; screening concentration 5 μM; 5 µM
# T3 construct: purchased Ubiquigent (DUBprofiler service)
# Experimental: as §1
# [4] = biological target: T4, panel of 48 purified DUBs (Homo sapiens, UniProt O75604); conditions: DUB USP2; screening concentration 5 μM; 5 µM
# T4 construct: purchased Ubiquigent (DUBprofiler service)
# Experimental: as §1
# [5] = biological target: T5, panel of 48 purified DUBs (Homo sapiens, UniProt Q70CQ3); conditions: DUB USP30; screening concentration 5 μM
# T5 construct: purchased Ubiquigent (DUBprofiler service)
# Experimental: as §1
# [6] = biological target: T6, panel of 48 purified DUBs (Homo sapiens, UniProt Q96G74); conditions: DUB OTUD5(p177S); screening concentration 5 μM; 5 µM
# T6 construct: purchased Ubiquigent (DUBprofiler service)
# Experimental: as §1
# [7] = biological target: T7, panel of 48 purified DUBs (Homo sapiens, UniProt O94782); conditions: DUB USP1/UAF1; screening concentration 5 μM; 5 µM
# T7 construct: purchased Ubiquigent (DUBprofiler service)
# Experimental: as §1
# [8] = biological target: T8, panel of 48 purified DUBs (Homo sapiens, UniProt Q9UHP3); conditions: DUB USP25; screening concentration 5 μM; 5 µM
# T8 construct: purchased Ubiquigent (DUBprofiler service)
# Experimental: as §1
# [9] = biological target: T9, panel of 48 purified DUBs (Homo sapiens, UniProt P09936); conditions: DUB UCHL1; screening concentration 5 μM; 5 µM
# T9 construct: purchased Ubiquigent (DUBprofiler service)
# Experimental: as §1
# [10] = biological target: T10, panel of 48 purified DUBs (Homo sapiens, UniProt Q9UK80); conditions: DUB USP21; screening concentration 5 μM
# T10 construct: purchased Ubiquigent (DUBprofiler service)
# Experimental: as §1
# [11] = system: panel of 48 purified DUBs; conditions: single dose 5 μM, including AMSH-LP
# Experimental: as §1
# [12] = biological target: T11, panel of 48 purified DUBs (Homo sapiens, UniProt Q9UPU5); conditions: DUB USP24; screening concentration 5 μM; 5 µM
# T11 construct: purchased Ubiquigent (DUBprofiler service)
# T11 sequence (Q9UPU5 whole entry): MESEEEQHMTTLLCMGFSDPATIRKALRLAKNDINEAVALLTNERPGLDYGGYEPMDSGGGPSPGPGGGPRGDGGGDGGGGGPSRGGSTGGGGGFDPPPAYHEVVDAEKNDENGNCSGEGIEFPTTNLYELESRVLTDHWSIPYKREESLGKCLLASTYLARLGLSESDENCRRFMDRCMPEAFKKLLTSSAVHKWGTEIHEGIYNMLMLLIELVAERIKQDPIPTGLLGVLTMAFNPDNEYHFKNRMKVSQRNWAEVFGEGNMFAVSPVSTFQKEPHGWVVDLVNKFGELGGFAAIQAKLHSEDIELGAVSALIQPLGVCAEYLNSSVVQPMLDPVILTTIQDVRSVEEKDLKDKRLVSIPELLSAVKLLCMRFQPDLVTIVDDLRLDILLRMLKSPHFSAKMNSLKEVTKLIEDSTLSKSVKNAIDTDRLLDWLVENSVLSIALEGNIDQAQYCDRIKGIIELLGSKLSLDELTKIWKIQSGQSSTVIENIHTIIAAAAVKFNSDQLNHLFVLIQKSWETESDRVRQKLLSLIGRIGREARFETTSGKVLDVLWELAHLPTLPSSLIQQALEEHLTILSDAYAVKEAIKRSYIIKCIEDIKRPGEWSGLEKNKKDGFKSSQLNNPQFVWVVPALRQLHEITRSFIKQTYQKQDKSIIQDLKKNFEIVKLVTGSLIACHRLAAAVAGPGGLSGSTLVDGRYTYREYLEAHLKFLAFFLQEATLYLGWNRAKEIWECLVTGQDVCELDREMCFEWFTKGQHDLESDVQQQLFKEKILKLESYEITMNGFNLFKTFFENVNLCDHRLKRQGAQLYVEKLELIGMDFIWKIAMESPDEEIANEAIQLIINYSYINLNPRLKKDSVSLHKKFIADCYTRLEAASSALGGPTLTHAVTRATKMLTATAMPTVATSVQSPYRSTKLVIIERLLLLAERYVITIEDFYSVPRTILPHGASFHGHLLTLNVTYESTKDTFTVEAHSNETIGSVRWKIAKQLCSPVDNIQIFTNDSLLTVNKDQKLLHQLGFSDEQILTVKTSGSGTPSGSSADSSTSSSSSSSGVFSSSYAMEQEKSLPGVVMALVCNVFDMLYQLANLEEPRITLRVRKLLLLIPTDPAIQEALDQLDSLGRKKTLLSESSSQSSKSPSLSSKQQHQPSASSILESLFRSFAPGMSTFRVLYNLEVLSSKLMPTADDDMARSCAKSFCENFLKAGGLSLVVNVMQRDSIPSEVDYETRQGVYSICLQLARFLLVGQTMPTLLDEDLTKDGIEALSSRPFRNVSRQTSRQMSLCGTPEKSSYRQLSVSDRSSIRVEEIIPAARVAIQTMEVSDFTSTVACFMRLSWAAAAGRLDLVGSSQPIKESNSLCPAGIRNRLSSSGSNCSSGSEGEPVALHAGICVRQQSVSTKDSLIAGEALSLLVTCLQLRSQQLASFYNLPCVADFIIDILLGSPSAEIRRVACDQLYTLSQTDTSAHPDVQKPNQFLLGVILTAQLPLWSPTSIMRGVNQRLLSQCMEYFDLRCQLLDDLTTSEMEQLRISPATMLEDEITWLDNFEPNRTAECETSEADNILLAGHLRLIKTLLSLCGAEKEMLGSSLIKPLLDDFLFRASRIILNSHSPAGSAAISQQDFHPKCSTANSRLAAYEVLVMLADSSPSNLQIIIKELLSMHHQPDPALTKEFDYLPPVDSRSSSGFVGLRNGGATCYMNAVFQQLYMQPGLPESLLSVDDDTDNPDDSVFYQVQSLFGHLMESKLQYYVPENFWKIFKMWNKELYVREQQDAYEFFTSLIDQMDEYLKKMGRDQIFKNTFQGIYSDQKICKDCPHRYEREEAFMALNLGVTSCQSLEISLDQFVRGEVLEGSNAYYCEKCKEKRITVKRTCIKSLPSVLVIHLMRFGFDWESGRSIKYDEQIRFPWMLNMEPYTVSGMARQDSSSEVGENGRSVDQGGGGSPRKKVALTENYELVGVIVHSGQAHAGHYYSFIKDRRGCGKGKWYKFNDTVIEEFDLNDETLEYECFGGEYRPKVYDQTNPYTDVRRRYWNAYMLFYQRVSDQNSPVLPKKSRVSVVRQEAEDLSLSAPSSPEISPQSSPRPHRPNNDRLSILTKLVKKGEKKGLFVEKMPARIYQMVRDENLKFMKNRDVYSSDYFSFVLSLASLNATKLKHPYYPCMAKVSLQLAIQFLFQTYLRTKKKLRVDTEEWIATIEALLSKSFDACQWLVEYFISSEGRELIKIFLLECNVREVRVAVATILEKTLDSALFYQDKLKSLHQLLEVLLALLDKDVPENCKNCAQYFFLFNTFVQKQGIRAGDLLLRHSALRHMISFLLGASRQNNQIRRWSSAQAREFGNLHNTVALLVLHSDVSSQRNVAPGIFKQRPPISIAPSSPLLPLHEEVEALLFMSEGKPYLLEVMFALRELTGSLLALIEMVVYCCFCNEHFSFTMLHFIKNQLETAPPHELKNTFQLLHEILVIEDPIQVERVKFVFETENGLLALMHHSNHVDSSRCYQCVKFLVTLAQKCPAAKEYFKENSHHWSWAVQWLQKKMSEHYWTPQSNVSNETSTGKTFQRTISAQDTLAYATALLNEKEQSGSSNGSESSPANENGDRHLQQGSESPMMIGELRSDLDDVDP
# Experimental: as §1
# [13] = biological target: T12, panel of 48 purified DUBs (Homo sapiens, UniProt Q6GQQ9); conditions: DUB Cezanne; screening concentration 5 μM; 5 µM
# T12 construct: purchased Ubiquigent (DUBprofiler service)
# Experimental: as §1
# [14] = biological target: T13, panel of 48 purified DUBs (Homo sapiens, UniProt Q70EL2); conditions: DUB USP45; screening concentration 5 μM; 5 µM
# T13 construct: purchased Ubiquigent (DUBprofiler service)
# Experimental: as §1
# [15] = biological target: T14, panel of 48 purified DUBs (Homo sapiens, UniProt P15374); conditions: DUB UCHL3; screening concentration 5 μM; 5 µM
# T14 construct: purchased Ubiquigent (DUBprofiler service)
# Experimental: as §1
# [16] = biological target: T15, panel of 48 purified DUBs (Homo sapiens, UniProt Q13107); conditions: DUB USP4; screening concentration 5 μM
# T15 construct: purchased Ubiquigent (DUBprofiler service)
# Experimental: as §1
# [17] = biological target: T16, panel of 48 purified DUBs (Homo sapiens, UniProt Q9Y5K5); conditions: DUB UCHL5; screening concentration 5 μM; 5 µM
# T16 construct: purchased Ubiquigent (DUBprofiler service)
# T16 sequence (Q9Y5K5 whole entry): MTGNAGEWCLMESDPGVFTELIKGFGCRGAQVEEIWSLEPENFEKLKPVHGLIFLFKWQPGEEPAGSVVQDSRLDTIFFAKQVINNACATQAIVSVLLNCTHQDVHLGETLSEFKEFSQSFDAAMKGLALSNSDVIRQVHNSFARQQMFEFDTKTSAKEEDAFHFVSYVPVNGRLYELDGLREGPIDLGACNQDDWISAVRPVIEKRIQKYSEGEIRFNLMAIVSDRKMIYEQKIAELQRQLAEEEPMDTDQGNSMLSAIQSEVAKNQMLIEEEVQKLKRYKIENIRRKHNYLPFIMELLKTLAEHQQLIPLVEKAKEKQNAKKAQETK
# Experimental: as §1
# [18] = biological target: T17, panel of 48 purified DUBs (Homo sapiens, UniProt Q9NQC7); conditions: DUB CYLD; screening concentration 5 μM; 5 µM
# T17 construct: purchased Ubiquigent (DUBprofiler service)
# Experimental: as §1
# [19] = biological target: T18, panel of 48 purified DUBs (Homo sapiens, UniProt Q5T2D3); conditions: DUB OTUD3; screening concentration 5 μM; 5 µM
# T18 construct: purchased Ubiquigent (DUBprofiler service)
# Experimental: as §1
# [20] = biological target: T19, panel of 48 purified DUBs (Homo sapiens, UniProt P35125); conditions: DUB USP6; screening concentration 5 μM; 5 µM
# T19 construct: purchased Ubiquigent (DUBprofiler service)
# Experimental: as §1
# [21] = biological target: T20, panel of 48 purified DUBs (Homo sapiens, UniProt Q8N6M0); conditions: DUB OTUD6B; screening concentration 5 μM; 5 µM
# T20 construct: purchased Ubiquigent (DUBprofiler service)
# Experimental: as §1
# [22] = biological target: T21, panel of 48 purified DUBs (Homo sapiens, UniProt Q9Y5T5); conditions: DUB USP16; screening concentration 5 μM; 5 µM
# T21 construct: purchased Ubiquigent (DUBprofiler service)
# Experimental: as §1
# [23] = biological target: T22, panel of 48 purified DUBs (Homo sapiens, UniProt P51784); conditions: DUB USP11; screening concentration 5 μM; 5 µM
# T22 construct: purchased Ubiquigent (DUBprofiler service)
# Experimental: as §1
# [24] = biological target: T23, panel of 48 purified DUBs (Homo sapiens, UniProt Q5VV17); conditions: DUB OTUD1; screening concentration 5 μM; 5 µM
# T23 construct: purchased Ubiquigent (DUBprofiler service)
# Experimental: as §1
# [25] = biological target: T24, panel of 48 purified DUBs (Homo sapiens, UniProt A6NNY8); conditions: DUB USP27X; screening concentration 5 μM; 5 µM
# T24 construct: purchased Ubiquigent (DUBprofiler service)
# Experimental: as §1
# [26] = biological target: T25, panel of 48 purified DUBs (Homo sapiens, UniProt Q8TAC2); conditions: DUB JOSD2; screening concentration 5 μM; 5 µM
# T25 construct: purchased Ubiquigent (DUBprofiler service)
# T25 sequence (Q8TAC2 whole entry): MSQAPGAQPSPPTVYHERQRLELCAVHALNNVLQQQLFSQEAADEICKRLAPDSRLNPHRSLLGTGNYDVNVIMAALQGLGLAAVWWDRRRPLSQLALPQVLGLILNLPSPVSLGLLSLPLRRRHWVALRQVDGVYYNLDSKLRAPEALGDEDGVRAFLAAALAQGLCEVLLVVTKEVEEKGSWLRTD
# Experimental: as §1
# [27] = biological target: T26, panel of 48 purified DUBs (Homo sapiens, UniProt Q6R6M4); conditions: DUB USP17; screening concentration 5 μM; 5 µM
# T26 construct: purchased Ubiquigent (DUBprofiler service)
# Experimental: as §1
# [28] = biological target: T27, panel of 48 purified DUBs (Homo sapiens, UniProt O94966); conditions: DUB USP19; screening concentration 5 μM; 5 µM
# T27 construct: purchased Ubiquigent (DUBprofiler service)
# T27 sequence (O94966 whole entry): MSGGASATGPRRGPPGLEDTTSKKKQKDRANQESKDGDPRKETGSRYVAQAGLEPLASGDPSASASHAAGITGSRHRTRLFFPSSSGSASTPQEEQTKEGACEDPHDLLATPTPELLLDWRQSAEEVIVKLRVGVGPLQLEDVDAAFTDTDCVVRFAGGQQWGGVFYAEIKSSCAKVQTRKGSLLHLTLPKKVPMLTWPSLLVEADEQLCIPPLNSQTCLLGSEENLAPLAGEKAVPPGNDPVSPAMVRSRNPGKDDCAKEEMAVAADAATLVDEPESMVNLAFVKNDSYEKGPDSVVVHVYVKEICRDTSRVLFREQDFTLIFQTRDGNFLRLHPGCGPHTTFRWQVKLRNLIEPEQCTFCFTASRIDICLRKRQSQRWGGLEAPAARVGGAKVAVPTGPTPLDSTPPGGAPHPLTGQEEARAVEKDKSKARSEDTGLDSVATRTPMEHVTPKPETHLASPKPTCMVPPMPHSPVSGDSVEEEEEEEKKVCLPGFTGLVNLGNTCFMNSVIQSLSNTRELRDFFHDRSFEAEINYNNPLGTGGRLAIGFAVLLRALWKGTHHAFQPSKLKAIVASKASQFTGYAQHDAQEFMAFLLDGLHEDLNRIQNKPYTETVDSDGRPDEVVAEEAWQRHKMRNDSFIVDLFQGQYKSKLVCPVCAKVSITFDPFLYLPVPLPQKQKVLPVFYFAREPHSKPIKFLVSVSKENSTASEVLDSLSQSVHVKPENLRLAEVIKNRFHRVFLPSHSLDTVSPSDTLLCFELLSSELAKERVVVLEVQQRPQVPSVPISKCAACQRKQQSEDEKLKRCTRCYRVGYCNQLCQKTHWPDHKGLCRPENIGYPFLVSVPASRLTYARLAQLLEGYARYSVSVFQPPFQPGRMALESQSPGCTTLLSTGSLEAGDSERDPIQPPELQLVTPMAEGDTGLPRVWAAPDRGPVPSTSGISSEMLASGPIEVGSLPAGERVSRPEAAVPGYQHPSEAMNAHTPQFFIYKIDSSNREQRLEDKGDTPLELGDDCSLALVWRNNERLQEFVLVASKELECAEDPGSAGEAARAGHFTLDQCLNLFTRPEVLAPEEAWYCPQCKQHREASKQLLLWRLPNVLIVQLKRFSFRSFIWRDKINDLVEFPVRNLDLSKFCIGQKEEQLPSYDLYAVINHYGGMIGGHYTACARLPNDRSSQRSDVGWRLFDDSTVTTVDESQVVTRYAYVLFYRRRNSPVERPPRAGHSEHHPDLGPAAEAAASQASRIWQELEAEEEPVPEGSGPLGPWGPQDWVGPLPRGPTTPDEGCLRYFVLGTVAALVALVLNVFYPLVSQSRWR
# Experimental: as §1
# [29] = biological target: T28, panel of 48 purified DUBs (Homo sapiens, UniProt Q96JH7); conditions: DUB VCPIP; screening concentration 5 μM
# T28 construct: purchased Ubiquigent (DUBprofiler service)
# Experimental: as §1
# [30] = biological target: T29, panel of 48 purified DUBs (Homo sapiens, UniProt Q96FJ0); conditions: screening concentration 5 μM, 5 µM
# T29 construct: purchased Ubiquigent (DUBprofiler service)
# T29 sequence (Q96FJ0 whole entry): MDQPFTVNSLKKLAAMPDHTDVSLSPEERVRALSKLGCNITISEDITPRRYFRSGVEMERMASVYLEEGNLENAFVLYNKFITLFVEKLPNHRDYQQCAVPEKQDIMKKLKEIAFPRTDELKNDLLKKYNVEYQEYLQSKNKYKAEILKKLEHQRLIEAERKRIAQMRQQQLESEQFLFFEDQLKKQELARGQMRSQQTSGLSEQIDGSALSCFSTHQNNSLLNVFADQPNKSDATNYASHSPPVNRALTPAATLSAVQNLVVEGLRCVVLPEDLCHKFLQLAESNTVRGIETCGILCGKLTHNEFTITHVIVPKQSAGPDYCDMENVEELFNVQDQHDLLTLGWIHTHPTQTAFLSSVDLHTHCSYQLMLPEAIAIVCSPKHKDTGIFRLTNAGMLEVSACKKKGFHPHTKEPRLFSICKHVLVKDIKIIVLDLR
# Experimental: as §1
smiles,measurement,setting,value
O=C(NC1CCNCC1)c1nn(C(=O)c2c(Cl)cccc2Cl)cc1NC(=O)c1c(Cl)cccc1Cl [JMS-175-2],Activity (% control),[1],107 % control and 96 % control
same,Activity (% control),[2],94 % control and 92 % control
same,Activity (% control),[3],108 % control and 117 % control
same,Activity (% control),[4],86 % control and 84 % control
same,Activity (% control),[5],89 % control
same,Activity (% control),[6],96 % control and 99 % control
same,Activity (% control),[7],81 % control and 82 % control
same,Activity (% control),[8],93 % control and 94 % control
same,Activity (% control),[9],104 % control and 112 % control
same,Activity (% control),[10],93 % control
same,inhibition of a panel of 48 DUBs,[11],did not fully inhibit any of the DUBs
same,Activity (% control),[12],98 % control and 99 % control
same,Activity (% control),[13],88 % control and 90 % control
same,Activity (% control),[14],112 % control and 107 % control
same,Activity (% control),[15],95 % control and 96 % control
same,Activity (% control),[16],101 % control
same,Activity (% control),[17],90 % control and 98 % control
same,Activity (% control),[18],104 % control and 112 % control
same,Activity (% control),[19],95 % control and 93 % control
same,Activity (% control),[20],92 % control and 95 % control
same,Activity (% control),[21],102 % control and 101 % control
same,Activity (% control),[22],79 % control and 78 % control
same,Activity (% control),[23],102 % control and 100 % control
same,Activity (% control),[24],100 % control and 102 % control
same,Activity (% control),[25],102 % control and 97 % control
same,Activity (% control),[26],101 % control and 102 % control
same,Activity (% control),[27],89 % control and 83 % control
same,Activity (% control),[28],100 % control and 99 % control
same,Activity (% control),[29],93 % control
same,Activity (% control),[30]; DUB AMSH-LP(+Zn2+),100 % control and 99 % control
same,Activity (% control),[30]; DUB AMSH-LP,98 % control and 90 % control
